Measurements as given in ChEMBL document CHEMBL1124261 (J Med Chem, 1988).

Assays:
[1] = test system: L1210; test: Mean change in weight of mice infected with L1210 leukemia after 7 days after an intraperitoneal dose of 20 mg/kg; format: functional, Mus musculus
[2] = test system: L1210; test: Mean change in weight of mice infected with L1210 leukemia after 7 days after an intraperitoneal dose of 60 mg/kg; format: functional, Mus musculus
[3] = molecular target: T1, Dihydrofolate reductase (Mus musculus, UniProt P00375); test: biochemical
T1 sequence (P00375 whole entry): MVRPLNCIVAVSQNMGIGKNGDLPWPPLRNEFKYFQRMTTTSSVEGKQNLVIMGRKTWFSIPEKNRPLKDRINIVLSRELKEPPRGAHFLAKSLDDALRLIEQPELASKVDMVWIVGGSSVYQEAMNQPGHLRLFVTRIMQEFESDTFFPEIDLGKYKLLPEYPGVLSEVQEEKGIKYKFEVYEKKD
Description: Tested for inhibition against purified Dihydrofolate reductase from L1210 murine leukemia cells

[4] = test system: L1210; test: Tested for cell-growth inhibition against mouse leukemic L1210 cells; format: functional, cell-based
[5] = test system: L1210 ( R81); test: Tested for cell-growth inhibition against mouse leukemic L1210/R81 cells; format: functional, cell-based
[6] = test system: L1210; test: Increase in life span of mice infected with L1210 leukemia after an intraperitoneal dose of 40 mg/kg for 9 days; format: functional; conditions: Mus musculus, L1210, ip, 216 h
[7] = test system: L1210; test: Mean survival of mice infected with L1210 leukemia after an intraperitoneal dose of 40 mg/kg for 9 days; format: functional, Mus musculus
[8] = test system: L1210; test: Mean survival of mice infected with L1210 leukemia after an intraperitoneal dose of 20 mg/kg for 9 days; format: functional, Mus musculus
[9] = test system: L1210; test: Mean survival of mice infected with L1210 leukemia after an intraperitoneal dose of 80 mg/kg for 9 days; format: functional, Mus musculus
[10] = test system: L1210; test: Range for the survival of mice infected with L1210 leukemia after an intraperitoneal dose of 60 mg/kg for 9 days; Range is 12-19; format: functional, Mus musculus
[11] = test system: L1210; test: Increase in life span of mice infected with L1210 leukemia after an intraperitoneal dose of 80 mg/kg for 9 days; format: functional; conditions: Mus musculus, L1210, ip, 216 h
[12] = molecular target: T2, Folylpolyglutamate synthase, mitochondrial (Mus musculus) (UniProt P48760); test: (§1) Tested for inhibition against purified Folyl-polyglutamate synthase from mouse liver; format: functional; conditions: concentration not given here
T2 sequence (whole entry): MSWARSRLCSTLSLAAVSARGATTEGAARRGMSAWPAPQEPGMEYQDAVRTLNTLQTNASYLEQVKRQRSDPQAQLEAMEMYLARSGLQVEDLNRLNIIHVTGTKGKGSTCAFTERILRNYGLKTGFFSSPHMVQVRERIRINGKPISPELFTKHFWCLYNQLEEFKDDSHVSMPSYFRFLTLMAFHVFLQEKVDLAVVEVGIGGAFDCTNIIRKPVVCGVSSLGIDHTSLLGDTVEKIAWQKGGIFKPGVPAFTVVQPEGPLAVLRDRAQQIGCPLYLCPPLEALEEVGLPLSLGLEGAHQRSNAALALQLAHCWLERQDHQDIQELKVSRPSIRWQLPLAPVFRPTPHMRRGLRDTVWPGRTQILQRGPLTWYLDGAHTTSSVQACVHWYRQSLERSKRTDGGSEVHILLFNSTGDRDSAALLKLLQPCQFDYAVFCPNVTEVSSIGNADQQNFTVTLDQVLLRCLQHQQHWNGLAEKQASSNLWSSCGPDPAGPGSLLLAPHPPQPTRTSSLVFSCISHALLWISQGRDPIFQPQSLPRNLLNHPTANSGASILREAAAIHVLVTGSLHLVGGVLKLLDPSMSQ

[13] = test system: L1210; test: Increase in life span of mice infected with L1210 leukemia after an intraperitoneal dose of 60 mg/kg for 9 days; format: functional; conditions: Mus musculus, L1210, ip, 216 h
[14] = test system: L1210; test: Range for the survival of mice infected with L1210 leukemia after an intraperitoneal dose of 20 mg/kg for 9 days; Range is 13-14; format: functional, Mus musculus
[15] = test system: CCRF-CEM; test: Tested for cell-growth inhibition against human leukemic lymphoblast CEM cells; format: functional, cell-based
[16] = test system: CCRF-CEM; test: Tested for cell-growth inhibition against human leukemic lymphoblast CEM/MTX cells; format: functional, cell-based
[17] = test system: L1210; test: Mean survival of mice infected with L1210 leukemia after an intraperitoneal dose of 60 mg/kg for 9 days; format: functional, Mus musculus
[18] = test system: L1210; test: Mean change in weight of mice infected with L1210 leukemia after 7 days after an intraperitoneal dose of 40 mg/kg; format: functional, Mus musculus
[19] = test system: L1210; test: Mean change in weight of mice infected with L1210 leukemia after 7 days after an intraperitoneal dose of 80 mg/kg; format: functional, Mus musculus
[20] = test system: L1210; test: Increase in life span of mice infected with L1210 leukemia after an intraperitoneal dose of 20 mg/kg for 9 days; format: functional; conditions: Mus musculus, L1210, ip, 216 h
[21] = test system: L1210; test: Range for the survival of mice infected with L1210 leukemia after an intraperitoneal dose of 80 mg/kg for 9 days; Range is 12-18; format: functional, Mus musculus
[22] = test system: L1210; test: Range for the survival of mice infected with L1210 leukemia after an intraperitoneal dose of 40 mg/kg for 9 days; Range is 14-16; format: functional, Mus musculus
[23] = molecular target: T3, Folylpolyglutamate synthase, mitochondrial (Homo sapiens, UniProt Q05932); test: Inhibitory constant against purified Folyl-polyglutamate synthase obtained from human
T3 sequence (Q05932 whole entry): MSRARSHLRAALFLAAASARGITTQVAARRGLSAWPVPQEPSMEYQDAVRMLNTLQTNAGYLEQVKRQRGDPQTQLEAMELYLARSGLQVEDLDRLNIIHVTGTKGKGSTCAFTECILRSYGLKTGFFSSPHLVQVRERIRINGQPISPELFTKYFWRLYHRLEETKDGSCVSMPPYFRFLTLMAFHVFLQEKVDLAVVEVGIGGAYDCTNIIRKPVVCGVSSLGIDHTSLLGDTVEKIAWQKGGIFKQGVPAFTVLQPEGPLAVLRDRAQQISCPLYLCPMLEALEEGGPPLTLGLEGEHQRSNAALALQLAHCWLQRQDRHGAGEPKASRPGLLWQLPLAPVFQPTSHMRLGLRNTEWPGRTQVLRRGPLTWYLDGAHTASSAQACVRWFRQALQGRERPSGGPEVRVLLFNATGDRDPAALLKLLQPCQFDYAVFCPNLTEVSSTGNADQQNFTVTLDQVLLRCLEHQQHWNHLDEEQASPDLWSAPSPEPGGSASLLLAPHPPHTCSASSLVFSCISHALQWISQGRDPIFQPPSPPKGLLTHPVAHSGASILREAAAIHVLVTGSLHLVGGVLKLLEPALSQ

[24] = molecular target: T4, Folylpolyglutamate synthase, mitochondrial (Mus musculus, UniProt P48760); test: Inhibitory constant against purified Folyl-polyglutamate synthase obtained from mouse liver
T4 sequence (P48760 whole entry): T2 sequence (whole entry)

[25] = test system: L1210; test: Range for the survival of mice infected with L1210 leukemia after an intraperitoneal dose of 80 mg/kg for 9 days; Range is 9-11; format: functional, Mus musculus
[26] = species: Mus musculus; test: as §1; conditions: concentration not given here
[27] = test system: L1210; test: Range for the survival of mice infected with L1210 leukemia after an intraperitoneal dose of 40 mg/kg for 9 days; Range is 12-25; format: functional, Mus musculus
[28] = test system: L1210; test: Range for the survival of mice infected with L1210 leukemia after an intraperitoneal dose of 20 mg/kg for 9 days; Range is 19-22; format: functional, Mus musculus
[29] = test system: L1210; test: Range for the survival of mice infected with L1210 leukemia after an intraperitoneal dose of 60 mg/kg for 9 days; Range is 9-24; format: functional, Mus musculus
[30] = molecular target: T4, Folylpolyglutamate synthase, mitochondrial; test: Inhibitory constant against purified Folyl-polyglutamate synthase obtained from mouse
[31] = test system: L1210; test: Range for the survival of mice infected with L1210 leukemia after an intraperitoneal dose of 40 mg/kg for 9 days; Range is 15-22; format: functional, Mus musculus
[32] = test system: L1210; test: Range for the survival of mice infected with L1210 leukemia after an intraperitoneal dose of 60 mg/kg for 9 days; Range is 17-19; format: functional, Mus musculus
[33] = molecular target: T2, Folylpolyglutamate synthase, mitochondrial (Mus musculus); test: as §1; conditions: concentration not given here
[34] = test system: L1210; test: Range for the survival of mice infected with L1210 leukemia after an intraperitoneal dose of 20 mg/kg for 9 days; Range is 14-16; format: functional, Mus musculus
[35] = test system: L1210; test: Range for the survival of mice infected with L1210 leukemia after an intraperitoneal dose of 80 mg/kg for 9 days; Range is 9-16; format: functional, Mus musculus
[36] = molecular target: T4, Folylpolyglutamate synthase, mitochondrial; test: Inhibitory constant against purified Folyl-polyglutamate synthase from mouse liver

Row | Ki [23] | Compound | Weight change [1] | Weight change [2] | IC50 [3] | IC50 [4] | IC50 [5] | ILS at 40 mg/kg [6] | Survival [7] | Survival [8] | Survival [9] | ILS at 80 mg/kg [11] | ILS at 60 mg/kg [13] | IC50 [15] | IC50 [16] | Survival [17] | Weight change [18] | Weight change [19] | ILS at 20 mg/kg [20] | further results
1 | – | CN(Cc1cnc2nc(N)nc(N)c2n1)c1ccc(C(=O)NC(CCCCCCCC(=O)O)C(=O)O)cc1 (stereo unspecified) | 7% | 6% | 32 nM | 4.2 nM | 73 µM | 66% | 14.6 days | 13.6 days | 15.2 days | 73% | 74% | 62 nM | 1 µM | 15.3 days | 6% | 3% | 55% | Range [10]: 12 days; inhibition [12]: 43%; Range [14]: 13 days; Range [21]: 12 days; Range [22]: 14 days
2 | 4000 nM | CN(Cc1cnc2nc(N)nc(N)c2n1)c1ccc(C(=O)N[C@@H](CCCN)C(=O)O)cc1 | – | – | – | – | – | – | – | – | – | – | – | – | – | – | – | – | – | Ki [24]: 20 µM
3 | – | CN(Cc1cnc2nc(N)nc(N)c2n1)c1ccc(C(=O)NC(CCCCCCCCCCC(=O)O)C(=O)O)cc1 (stereo unspecified) | 3% | 2% | 26 nM | 26 nM | 56 µM | 116% | 19 days | 20.4 days | 10 days | 14% | 97% | 640 nM | 10 µM | 17.3 days | 3% | 4% | 137% | Range [25]: 9 days; inhibition [26]: 59%; Range [27]: 12 days; Range [28]: 19 days; Range [29]: 9 days
4 | 300 nM | NCCC[C@H](NC(=O)c1ccc(NCc2cnc3nc(N)nc(N)c3n2)cc1)C(=O)O | – | – | – | – | – | – | – | – | – | – | – | – | – | – | – | – | – | Ki [30]: 300 nM
5 | – | CN(Cc1cnc2nc(N)nc(N)c2n1)c1ccc(C(=O)NC(CCCCCCC(=O)O)C(=O)O)cc1 (stereo unspecified) | 4% | 4% | 23 nM | 1.2 nM | 68 µM | 93% | 17 days | 14.8 days | 12.6 days | 43% | 105% | 150 nM | 5.8 µM | 18 days | -1% | -12% | 68% | Range [31]: 15 days; Range [32]: 17 days; inhibition [33]: 47%; Range [34]: 14 days; Range [35]: 9 days; Ki [36]: 320 µM
